Experimental data taken from the NIST ThermoML archive (doi:10.1021/acs.jced.5b00738).
Numbers after ± are expanded uncertainties.

Test: refractive index (Na D-line) (dimensionless)
Conditions: 298.15 K; 101.33 kPa; Liquid; Standard Abbe refractometry

| Compound | refractive index |
| --- | --- |
| CC(C)=O [acetone] | 1.35553 ± 0.001 |
| O=Cc1ccco1 [2-furaldehyde] | 1.52263 ± 0.001 |
| CC(=O)CC(C)C [4-methylpentan-2-one] | 1.39327 ± 0.001 |
| O [water] | 1.33249 ± 0.001 |
| CCC(C)(C)O [2-methylbutan-2-ol] | 1.40219 ± 0.001 |
